Measurements from paper PMC6199744, “Development of Chemical Proteomics for the Folateome and Analysis of the Kinetoplastid Folateome” (ACS Infectious Diseases, 2018).
Where two headings read alike, the source gives them in different places.

Assays:
Assay type in all cases: binding
[1] = molecular target: T1, HeLa cell extract proteins (Homo sapiens, UniProt P31327)
T1 construct: endogenous in cells; host or cells: HeLa cell extract
T1 sequence (P31327 39-1500): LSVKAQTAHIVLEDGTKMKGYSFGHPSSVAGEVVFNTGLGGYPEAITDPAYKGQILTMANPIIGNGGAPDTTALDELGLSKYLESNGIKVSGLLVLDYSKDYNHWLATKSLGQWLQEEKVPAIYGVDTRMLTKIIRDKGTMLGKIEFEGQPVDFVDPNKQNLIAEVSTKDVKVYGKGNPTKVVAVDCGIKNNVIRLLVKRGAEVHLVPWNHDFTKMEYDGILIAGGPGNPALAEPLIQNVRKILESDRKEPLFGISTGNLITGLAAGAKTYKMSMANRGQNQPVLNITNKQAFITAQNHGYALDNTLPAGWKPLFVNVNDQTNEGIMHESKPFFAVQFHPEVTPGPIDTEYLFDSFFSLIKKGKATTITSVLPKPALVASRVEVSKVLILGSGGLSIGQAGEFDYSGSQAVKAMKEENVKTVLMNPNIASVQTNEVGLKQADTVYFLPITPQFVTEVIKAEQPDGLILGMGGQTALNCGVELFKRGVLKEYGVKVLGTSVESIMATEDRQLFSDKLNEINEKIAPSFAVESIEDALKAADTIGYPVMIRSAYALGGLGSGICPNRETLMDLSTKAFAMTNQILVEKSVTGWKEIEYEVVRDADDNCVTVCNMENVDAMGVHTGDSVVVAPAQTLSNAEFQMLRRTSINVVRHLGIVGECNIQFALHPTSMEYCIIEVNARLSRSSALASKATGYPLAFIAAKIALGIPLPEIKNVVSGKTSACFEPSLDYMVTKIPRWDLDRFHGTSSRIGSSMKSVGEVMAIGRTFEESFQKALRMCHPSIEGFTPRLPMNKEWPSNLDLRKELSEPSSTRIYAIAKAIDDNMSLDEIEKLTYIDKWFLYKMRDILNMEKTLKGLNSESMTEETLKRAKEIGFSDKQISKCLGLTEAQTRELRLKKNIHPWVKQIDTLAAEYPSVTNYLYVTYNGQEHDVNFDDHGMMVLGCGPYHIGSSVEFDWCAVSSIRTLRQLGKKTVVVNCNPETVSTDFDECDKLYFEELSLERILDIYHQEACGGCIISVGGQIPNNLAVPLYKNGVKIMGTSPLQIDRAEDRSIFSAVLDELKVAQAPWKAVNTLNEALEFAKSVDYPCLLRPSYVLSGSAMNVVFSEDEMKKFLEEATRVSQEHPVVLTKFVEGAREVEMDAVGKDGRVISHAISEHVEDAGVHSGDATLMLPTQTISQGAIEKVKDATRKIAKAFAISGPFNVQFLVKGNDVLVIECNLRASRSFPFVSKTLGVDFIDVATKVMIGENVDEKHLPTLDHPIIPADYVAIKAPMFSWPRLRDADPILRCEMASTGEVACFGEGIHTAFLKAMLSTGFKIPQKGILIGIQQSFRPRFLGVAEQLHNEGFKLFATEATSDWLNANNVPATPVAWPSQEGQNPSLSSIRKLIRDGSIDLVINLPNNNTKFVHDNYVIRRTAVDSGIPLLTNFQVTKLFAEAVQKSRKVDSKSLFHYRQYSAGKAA

[2] = molecular target: T2, HeLa cell extract proteins (Homo sapiens, UniProt P49748)
T2 construct: endogenous in cells; host or cells: HeLa cell extract
T2 sequence (P49748 41-655): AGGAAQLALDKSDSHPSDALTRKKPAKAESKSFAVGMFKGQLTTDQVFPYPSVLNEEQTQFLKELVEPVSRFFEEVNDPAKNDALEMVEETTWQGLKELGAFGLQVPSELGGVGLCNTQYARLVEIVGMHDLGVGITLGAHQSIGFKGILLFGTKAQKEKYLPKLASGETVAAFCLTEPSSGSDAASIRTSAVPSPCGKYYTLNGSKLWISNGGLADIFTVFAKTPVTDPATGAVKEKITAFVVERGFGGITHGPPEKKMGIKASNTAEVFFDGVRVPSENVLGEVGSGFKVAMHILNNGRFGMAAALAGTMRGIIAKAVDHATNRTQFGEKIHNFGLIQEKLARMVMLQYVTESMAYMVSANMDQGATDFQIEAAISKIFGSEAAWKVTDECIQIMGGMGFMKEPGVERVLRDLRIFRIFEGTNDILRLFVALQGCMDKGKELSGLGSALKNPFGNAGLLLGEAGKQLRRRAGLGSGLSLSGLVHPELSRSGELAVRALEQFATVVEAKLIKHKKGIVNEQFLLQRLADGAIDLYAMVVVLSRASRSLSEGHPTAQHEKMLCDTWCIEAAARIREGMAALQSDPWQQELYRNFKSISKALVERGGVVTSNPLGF

[3] = molecular target: T3, HeLa cell extract proteins (Homo sapiens, UniProt Q8N1F7)
T3 construct: endogenous in cells; host or cells: HeLa cell extract
T3 sequence (Q8N1F7 1-819): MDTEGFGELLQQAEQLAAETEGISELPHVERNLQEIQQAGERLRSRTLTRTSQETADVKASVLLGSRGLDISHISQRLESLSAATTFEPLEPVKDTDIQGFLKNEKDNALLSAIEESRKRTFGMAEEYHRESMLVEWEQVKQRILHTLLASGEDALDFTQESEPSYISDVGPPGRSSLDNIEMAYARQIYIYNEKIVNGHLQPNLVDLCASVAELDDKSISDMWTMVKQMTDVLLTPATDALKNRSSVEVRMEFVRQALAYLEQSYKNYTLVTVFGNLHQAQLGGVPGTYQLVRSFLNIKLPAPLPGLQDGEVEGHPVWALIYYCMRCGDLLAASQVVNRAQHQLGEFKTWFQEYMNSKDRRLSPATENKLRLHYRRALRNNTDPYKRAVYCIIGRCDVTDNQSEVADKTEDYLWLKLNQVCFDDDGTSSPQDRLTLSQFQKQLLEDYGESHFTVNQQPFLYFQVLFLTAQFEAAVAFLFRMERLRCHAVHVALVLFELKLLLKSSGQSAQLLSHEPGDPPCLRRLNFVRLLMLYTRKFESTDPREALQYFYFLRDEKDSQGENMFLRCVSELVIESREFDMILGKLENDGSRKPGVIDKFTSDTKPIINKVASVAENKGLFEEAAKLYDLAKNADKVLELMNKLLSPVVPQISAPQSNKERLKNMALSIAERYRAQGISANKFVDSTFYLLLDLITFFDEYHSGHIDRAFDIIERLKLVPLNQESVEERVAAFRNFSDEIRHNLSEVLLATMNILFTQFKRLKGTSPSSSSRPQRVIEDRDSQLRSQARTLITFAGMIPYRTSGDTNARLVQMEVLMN

Row | SMILES | fold changes relative to vehicle control ([1]; protein CPS1, HeLa) | fold changes relative to vehicle control ([2]; protein ACADVL, HeLa) | fold changes relative to vehicle control ([3]; captured protein NUP93, HeLa) | fold changes relative to vehicle control ([1]; HeLa, captured protein CPS1) | fold changes relative to vehicle control ([2]; HeLa, protein ACADVL) | fold changes relative to vehicle control ([3]; protein NUP93, HeLa) | further results
1 | Nc1nc2cccc(-c3ccccc3)c2n1Cc1ccc(Cl)c(Cl)c1 [compound 3] | 1.09 | 0.91 | 0.96 | – | – | – | –
2 | NCCOCCOCC(=O)Nc1nc2ncc(CNc3ccc(C(=O)NC(CCC(=O)O)C(=O)O)cc3)nc2c(=O)[nH]1 (stereo not drawn) [compound 6] | – | – | – | 1.27 | 1.22 | 1.01 | –
3 | Nc1nc2[nH]cc(CCc3ccc(C(=O)N[C@@H](CCC(=O)O)C(=O)O)cc3)c2c(=O)[nH]1 [PTX, pemetrexed] | – | – | – | – | – | – | fold changes relative to vehicle control [1]: 1.08; fold changes relative to vehicle control [2]: 1.03; fold changes relative to vehicle control [3]: 0.91
4 | Nc1nc2c(c(=O)[nH]1)N(C=O)C(CNc1ccc(C(=O)N[C@@H](CCC(=O)O)C(=O)O)cc1)CN2 (stereo partly drawn) [LEU, leucovorin] | – | – | – | 1.13 | 0.98 | 0.84 | –
5 | CCCCCCOc1ccc(Cc2cnc(N)nc2N)cc1 [compound 1] | 1.27 | 0.96 | 0.87 | – | – | – | –
6 | NCCCNc1ccc(C(=O)NC(CCC(=O)O)C(=O)O)cc1 (stereo not drawn) [compound 7] | – | – | – | 1.05 | 0.97 | 0.9 | –
7 | CCCCCCOc1cccc(Cc2cnc(N)nc2N)c1 [compound 2] | 1.61 | 1.29 | 0.96 | – | – | – | –
